Experimental data: the supplement of paper PMC10307832

What was measured:
Assay in all cases: relative viability (nuclei count vs DMSO), 5 days (fraction); higher = more cells survive
[1] = compound: C=CC(=O)N1CCC[C@@H](n2nc(-c3ccc(Oc4ccccc4)cc3)c3c(N)ncnc32)C1 [Ibrutinib] + CC1(C)CCC(c2ccc(Cl)cc2)=C(CN2CCN(c3ccc(C(=O)NS(=O)(=O)c4ccc(N[C@H](CCN5CCOCC5)CSc5ccccc5)c(S(=O)(=O)C(F)(F)F)c4)cc3)CC2)C1 [Navitoclax] (partner 0.5 µM)
Outline: (§1)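 Relative viability is defined as nuclei in treated wells over nuclei in vehicle wells. Duplicate plates were run and medians reported. Lung cancer cell lines in 1536-well plates were dosed by pin tool one day after seeding, with one drug or with a fixed anchor-drug dose plus five library-drug doses (not always all listed) in √10 steps, and nuclei were counted after 5 days.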

[2] = compound: C=CCc1cccc(/C=N/NC(=O)CN2CCN(Cc3ccccc3)CC2)c1O [PAC-1] + CC(C)C[C@H](NC(=O)[C@H](Cc1ccccc1)NC(=O)c1cnccn1)B(O)O [Bortezomib] (partner 0.002 µM)
Outline: as §1

[3] = compound: C=CC(=O)N1CCC[C@@H](n2nc(-c3ccc(Oc4ccccc4)cc3)c3c(N)ncnc32)C1 [Ibrutinib] + N=C(N)NC(=N)NCCc1ccccc1 [Phenformin] (partner 250 µM)
Outline: as §1

[4] = compound: C=CC(=O)N1CCC[C@@H](n2nc(-c3ccc(Oc4ccccc4)cc3)c3c(N)ncnc32)C1 [Ibrutinib] + NC(=O)Nc1cc(-c2cccc(F)c2)sc1C(=O)N[C@H]1CCCNC1 [AZD7762] (partner 0.2 µM)
Outline: as §1

Cell Line	relative viability ([1]; first compound 0.005 µM)	relative viability ([1]; first compound 0.01581 µM)	relative viability ([1]; first compound 0.05 µM)	relative viability ([1]; first compound 0.1581 µM)	relative viability ([1]; first compound 0.5 µM)	relative viability ([2]; first compound 0.02 µM)	relative viability ([2]; first compound 0.06325 µM)	relative viability ([2]; first compound 0.2 µM)	relative viability ([2]; first compound 2 µM)	relative viability ([3]; first compound 0.005 µM)	relative viability ([3]; first compound 0.01581 µM)	relative viability ([3]; first compound 0.05 µM)	relative viability ([3]; first compound 0.1581 µM)	relative viability ([3]; first compound 0.5 µM)	relative viability ([4]; first compound 0.005 µM)	relative viability ([4]; first compound 0.01581 µM)	relative viability ([4]; first compound 0.05 µM)	relative viability ([4]; first compound 0.1581 µM)	relative viability ([4]; first compound 0.5 µM)
EBC-1	0.441	0.433	0.516	0.349	0.388	0.513	0.544	0.633	0.53										
EKVX	0.868	0.96	0.915	0.806	0.485	1.02	1.04	1.03	0.991	0.224	0.245	0.226	0.227	0.13	0.75	0.61	0.605	0.732	0.246
EMC-BAC-2	1.16	1.06	1.01	1.16	1.02	1.09	1.04	1.11	1.13	0.465	0.509	0.53	0.571	0.507	1.19	1.1	1.1		1.2
EPLC-272H		0.982	1.07	1.28	0.694		0.895	1.02	1	0.314	0.286	0.283	0.274	0.207		0.232	0.269	0.241	0.191
H3255	0.539	0.511	0.226	0.425	0.157	0.876	0.778	0.861	0.729	0.364	0.344	0.382	0.375	0.233	0.695	0.767	0.61	0.754	0.418
HARA	1.17	1.1	1.12	1.15	0.791	1.08	1.12	0.853	1.11	0.445	0.377	0.357	0.406	0.331	0.495	0.449	0.602	0.318	0.408
HCC-15	0.741	0.62	0.701	0.727	0.673	1.03	1.11	1.01	1.04	0.571	0.477	0.524	0.408	0.53	1.33	1.25	1.19	1.25	1.4
HCC-44	0.977	0.913	0.935	0.995	0.919	0.894	0.885	0.947	0.934	0.138	0.182	0.148	0.11	0.232	1.11				1.07
HCC-78	0.785	0.746	0.722	0.696	0.566	0.387	0.496	0.434	0.483	0.541	0.787	0.575	0.616	0.559		0.732	0.251	0.452	0.592
